In article PMC7724566, “Prospects for Clinical Development of Stat5 Inhibitor IST5-002: High Transcriptomic Specificity in Prostate Cancer and Low Toxicity In Vivo” (Cancers, 2020):

Columns and labels:
Stat5 = Stat5 phosphorylation in CWR22Rv1 cells (IP/immunoblot); type: cell-based, human; conditions: 4 days
Experimental: In order to evaluate whether the phosphate group of IST5 is critical for IST5 activity in cell-based assays, we compared the potency of IST5 (Figure 4A) to that of IST5-M (IST5 without the phosphate group) (Figure 4B) in inhibiting phosphorylation of Stat5 in PC and CML cells. CML (K562) cells and PC (CWR22Rv1) cells were cultured for 4 days with increasing concentrations of IST5 and IST5-M (Figure 4C,D). […] Collectively, these finding indicate that IST5 and IST5-M have similar efficacies in inhibiting phosphorylation of Stat5 in both CML and PC cells.
Figure 4 IST5 and the IST5-derivative lacking the phosphate group (IST5-M), both, inhibit Stat5 phosphorylation in CML and prostate cancer cell line with high efficacy. (A), chemical structure of IST5-002 (IST5). (B), chemical structure of IST5-M (IST5 without the phosphate group. (C), IST5 and IST5-M both inhibit Stat5 phosphorylation in CML cells (K562) with high efficacy. K562 cells were treated with IST5 and IST5-M for 4 days at the concentrations indicated. Whole cell lysates (WCL) were immunoblotted with anti-pYStat5 mAb, anti-Stat5 mAb and anti-actin mAb as loading control. (D), IST5 and IST5-M, both, decrease Stat5 phosphorylation in PC cells (CWR22Rv1). CWR22Rv1 cells were treated with increasing concentrations of IST5 and IST5-M for 4 days. Stat5 was immunoprecipitated (IP) followed by immunoblotting (WB) with anti-pYStat5 mAb and anti-Stat5 mAb. Whole cell lysates (WCL) were immunoblotted with anti-actin mAb as loading control.
Cell pellets were solubilized in the lysis buffer (10 mM Tris-HCl (pH 7.6), 5 mM EDTA, 50 mM sodium chloride, 30 mM sodium pyrophosphate, 50 mM sodium fluoride, 1 mM sodium orthovanadate, 1% Triton X-100, 1 mM phenylmethylsulfonyl fluoride, 5 µg/mL aprotinin, 1 µg/mL pepstatin A and 2 µg/mL leupeptin), and protein concentrations of clarified cell lysates were determined by a simplified Bradford method (Bio-Rad, Hercules, CA, USA). The whole cell lysates were immunoprecipitated with polyclonal antibodies (Table S1) followed by incubation with protein A-Sepharose beads (GE Healthcare, Chicago, IL, USA). The cell lysates and immunoprecipitated proteins were separated on 4–12% SDS-PAGE (Life Technologies, Brown Deer, WI, USA) and transferred electrophoretically to polyvinylidene fluoride membrane (Millipore). For immunoblotting, blocking buffer was tris-buffered saline and tween 20 (TBST, 0.15 M NaCl; 0.1% Tween 20; 50 mM Tris, pH 8.0) with 3% bovine serum albumin (BSA). The immunoreaction with the specific antibodies (Table S1) was detected by horseradish peroxidase-conjugated secondary antibodies followed by enhanced chemiluminescence (GE Healthcare).

athymic nude mice = assay: Acute toxicity study, plasma biochemistry; type: in vivo; conditions: for ALT / AST / Albumin / Alk.Ptase / BUN / Bile Acid / Chol / Globulin / TBIL: plasma
Experimental: The acute toxicity study of the compound IST5 was carried out in athymic nude mice (8 weeks) (Crl:NU/NCr-Foxn1n) of either sex (n = 8/dose group, 4 of each sex). IST5 compound was administered once (0, 10, 30, and 100 mg/kg) via single intra-peritoneal (i.p.) injection, and the mice in the vehicle (0 mg/kg) group received each a single i.p. injection of 0.3% hydroxypropyl cellulose. Plasma samples were analyzed for liver (AST, […], alkaline phosphatase, total bilirubin, bile acid) and kidney functions (BUN, albumin, globulin and albumin-globulin ratio) (Marshfields Labs, WI, USA).
The following clinical chemistry parameters were measured: Aspartate aminotransferase (AST), alanine aminotransferase (ALT), sorbitol dehydrogenase (SDH), alkaline phosphatase (ALP), γ-glutamyltransferase (GGT), lactate dehydrogenase (LDH), bilirubin (TBIL), protein (TP), glucose (GLU), blood urea nitrogen (BUN), creatinine (CREAT), and electrolytes (Na, K, Cl, Ca, CO2).

[1] = system: patient-derived clinical PCs; parameters: method as in PMID 26026053, PMID 31548294; conditions: 3D tumor explant cultures; cited from earlier work

O=P(O)(O)OCC1OC(n2cnc3c(NCc4ccccc4)ncnc32)C(O)C1O (stereo not shown) [IST5]
inhibition of Stat5 phosphorylation (Stat5; 2 µM, CWR22Rv1 cells): 60–75%
IC50 (Stat5; read-out: IC50, inhibition of Stat5 phosphorylation, CWR22Rv1 PC cells): ~1.3 µM
BW (athymic nude mice; single i.p. 10 mg/kg): 22.8 ± 0.79 g
ALT (athymic nude mice; single i.p. 10 mg/kg): 62.1 ± 11.0 U/L
AST (athymic nude mice; single i.p. 10 mg/kg): 284 ± 78.7 U/L
Albumin (athymic nude mice; single i.p. 10 mg/kg): 3.25 ± 0.01 g/dL
Alk.Ptase (athymic nude mice; single i.p. 10 mg/kg): 43.17 ± 3.5 U/L
BUN (athymic nude mice; single i.p. 10 mg/kg): 27.67 ± 1.4
Bile Acid (athymic nude mice; single i.p. 10 mg/kg): 0.88 ± 0.40 µmol/dL
Chol (athymic nude mice; single i.p. 10 mg/kg): 67.80 ± 5.0 mg/dL
Globulin (athymic nude mice; single i.p. 10 mg/kg): 1.4 ± 0.01
TBIL (athymic nude mice; single i.p. 10 mg/kg): 0.51 ± 0.10 mg/dL
BW (athymic nude mice; single i.p. 30 mg/kg): 21.9 ± 089 g
ALT (athymic nude mice; single i.p. 30 mg/kg): 100 ± 23.9 U/L
AST (athymic nude mice; single i.p. 30 mg/kg): 488 ± 168 U/L
Albumin (athymic nude mice; single i.p. 30 mg/kg): 4.16 ± 0.59 g/dL
Alk.Ptase (athymic nude mice; single i.p. 30 mg/kg): 57.0 ± 6.82 U/L
BUN (athymic nude mice; single i.p. 30 mg/kg): 29.6 ± 1.79
Bile Acid (athymic nude mice; single i.p. 30 mg/kg): 3.35 ± 2.87 µmol/dL
Chol (athymic nude mice; single i.p. 30 mg/kg): 182 ± 57.8 mg/dL
Globulin (athymic nude mice; single i.p. 30 mg/kg): 1.4 ± 0.08
TBIL (athymic nude mice; single i.p. 30 mg/kg): 1.16 ± 0.43 mg/dL
BW (athymic nude mice; single i.p. 100 mg/kg): 22.0 ± 0.97 g
HCT (athymic nude mice; single i.p. 100 mg/kg): 0.44 ± 0.01 L/L
ALT (athymic nude mice; single i.p. 100 mg/kg): 73.2 ± 15.4 U/L
AST (athymic nude mice; single i.p. 100 mg/kg): 377 ± 96.7 U/L
Albumin (athymic nude mice; single i.p. 100 mg/kg): 3.32 ± 0.15 g/dL
Alk.Ptase (athymic nude mice; single i.p. 100 mg/kg): 55.8 ± 5.42 U/L
BUN (athymic nude mice; single i.p. 100 mg/kg): 28.6 ± 1.14
Bile Acid (athymic nude mice; single i.p. 100 mg/kg): 2.52 ± 1.28 µmol/dL
Chol (athymic nude mice; single i.p. 100 mg/kg): 89.4 ± 5.91 mg/dL
Globulin (athymic nude mice; single i.p. 100 mg/kg): 1.28 ± 0.10
TBIL (athymic nude mice; single i.p. 100 mg/kg): 0.62 ± 0.09 mg/dL
apoptotic death in patient-derived clinical PCs ex vivo [1]: induce apoptotic death
